Test results as given in patent US8633250B2, “Cell repair and regeneration by suramin and related polysulfonated napthylureas” (MUSC Foundation for Research Development, priority 2006, dated 2014).

Assays:
Type in all cases: cell-based, rabbit
[1] = test system: renal proximal tubule cells (RPTC); assay: MTT assay of RPTC proliferation; conditions: 50 μM suramin 48 hr; 10 μM AG1478, 20 μM LY294002, 10 μM U0126 or 10 μM PP1
Procedure: Isolation and culture of renal proximal tubules: Isolation and culture of renal proximal tubules were performed as described previously (Rodeheaver et al., 1990; Nowak and […], 1995; Nowak and […], 1996). Female New Zealand White rabbits (1.5-2.5 kg) were purchased from Myrtle's Rabbitry (Thompson Station, Tenn.). RPTC were isolated using the iron oxide perfusion method and grown in 6-well tissue culture dishes under improved conditions. The culture medium was an 1:1 mixture of DMEM/Ham's F-12 (without glucose, phenol red, or sodium pyruvate) supplemented with 15 mM HEPES buffer, 2.5 mM L-glutamine, 1 μM pyridoxine HCl, 15 mM sodium bicarbonate, and 6 mM lactate. Hydrocortisone (50 μM), selenium (5 ng/ml), human transferrin (5 μg/ml) bovine insulin (10 nM) and L-ascorbic acid-2-phosphate (50 μM) were added daily to fresh culture medium. Isolated tubules were plated at 1 mg protein/well in a 6-well plate. On day 2, RPTC were incubated in the presence and absence of various pharmacological inhibitors for different time periods as indicated in the figure legends. […] MTT assay: The 3-(4,5-dimethylthiazol-2-yl)-2,5-diphenyl-tetrazolium bromide (MTT) assay was used to assess cell proliferation (Kooistra et al., 1997; […] et al., 2002). Following a 48 hr exposure to various inhibitors or diluents, MTT was added (final concentration of 0.5 mg/ml) to individual cultures for an additional 30 min. Tetrazolium was released by dimethyl sulfoxide and optical density was determined with a spectrophotometer (570 nm). Data were normalized to diluent-treated cultures.

Akt = assay: Immunoblot of Akt phosphorylation in RPTC; conditions: pretreated 1 hr with 20 μM LY294002, or 10 μM PP1, or AG1478; 50 μM suramin 30 min
Procedure: (§1) Preparation of cell lysates and immunoblot analysis: After different treatments, RPTC were washed twice with PBS and harvested in lysis buffer (0.25 M Tris-HCl, pH 6.8, 4% SDS, 10% glycerol, 1 mg/ml bromophenol blue, and 0.5% 2-mercaptoethanol). Cells were disrupted by sonication for 15 seconds and lysates stored at −20 °C. Equal amounts of cellular protein lysate were separated on 10% polyacrylamide gels and transferred to nitrocellulose membranes. After treatment with 5% skim milk at 4 °C overnight, membranes were incubated with various antibodies for 1 hr, and then incubated with an appropriate horseradish-peroxidase conjugated secondary antibody (Amersham, Piscataway, N.J.). Bound antibodies were visualized following chemiluminescence detection on autoradiographic film.
We evaluated whether the PI3K/Akt and/or ERK1/2 pathways are activated in RPTC in response to suramin. The activation of the PI3K and ERK1/2 pathways was measured using immunoblot analysis and antibodies that recognize phosphorylated Akt at serine 473 (a target of PI3K) and ERK1/2, respectively. Total Akt and ERK1/2 content was measured using immunoblot analysis and antibodies that recognize the Akt and ERK1/2 independent of their phosphorylation state to control for gel loading. Suramin-induced Akt phosphorylation within 10 min, reached a maximum at 30 min and was sustained through 120 min of treatment (FIG. 6A). ERK1/2 phosphorylation also was induced within 10 min and maximal at 30 min, but decreased to the control levels at 120 min.

[2] = test system: renal proximal tubule cells (RPTC); assay: Cell cycle analysis by flow cytometry: number of RPTC in S-phase; conditions: 50 μM suramin 24 hr; 20 μM LY294002, 10 μM U0126 or 10 μM PP1
Procedure: (§2) Isolation and culture of renal proximal tubules: Isolation and culture of renal proximal tubules were performed as described previously (Rodeheaver et al., 1990; Nowak and Schnellmann, 1995; Nowak and Schnellmann, 1996). Female New Zealand White rabbits (1.5-2.5 kg) were purchased from Myrtle's Rabbitry (Thompson Station, Tenn.). RPTC were isolated using the iron oxide perfusion method and grown in 6-well tissue culture dishes under improved conditions. The culture medium was an 1:1 mixture of DMEM/Ham's F-12 (without glucose, phenol red, or sodium pyruvate) supplemented with 15 mM HEPES buffer, 2.5 mM L-glutamine, 1 μM pyridoxine HCl, 15 mM sodium bicarbonate, and 6 mM lactate. Hydrocortisone (50 μM), selenium (5 ng/ml), human transferrin (5 μg/ml) bovine insulin (10 nM) and L-ascorbic acid-2-phosphate (50 μM) were added daily to fresh culture medium.
(§3) Isolated tubules were plated at 1 mg protein/well in a 6-well plate. On day 2, RPTC were incubated in the presence and absence of various pharmacological inhibitors for different time periods as indicated in the figure legends. For some experiments, suramin was added to RPTC on day 3 and then incubated for 24 hr in the presence or absence of various inhibitors before samples were taken.
Cell cycle analysis: Cell cycle phase was determined using flow cytometry as previously described (Zhuang et al., 2004). Cells were harvested, stained with propidium iodide and the number of cells in S-phase of cell cycle determined.

[3] = test system: renal proximal tubule cells (RPTC); assay: RPTC scattering, fibroblast-like morphology and lamellipodia (bright field, phalloidin staining); conditions: for effect of inhibitor on suramin-induced fibroblast-like phenotype and RPTC scattering: 50 μM suramin 24 hr, 10 μM AG1478, 20 μM LY294002, 10 μM U0126 or 10 μM PP1
Procedure: as §2, §3
Immunocytochemistry: After various treatments, RPTC were fixed with 10% buffered formalin, washed, permeabilized, and blocked with BSA. Fluorescein conjugated phalloidin was added and RPTC visualized by fluorescent microscopy.

EGF receptor = assay: Immunoblot of EGF receptor phosphorylation (Tyr1068) in RPTC; conditions: pretreated with 10 μM AG1478 for 1 hr, then EGF 10 min
Procedure: as §1
To determine whether suramin caused EGF receptor activation, we performed immunoblot analysis using an antibody against phosphorylated tyrosine 1068 of the EGF receptor. Total EGF receptor content was measured using immunoblot analysis and an antibody that recognizes the EGF receptor independent of its phosphorylation state to control for gel loading. […] Thus, suramin induced RPTC proliferation and scattering is not through the EGF receptor.

Src = assay: Immunoblot of Src phosphorylation (Tyr416, Tyr527) in RPTC; conditions: PP1, suramin-treated RPTC
Procedure: as §1
To determine whether suramin activates Src and whether Src mediates Akt activation, we examined the effect of suramin on Src phosphorylation and the effect of PP1 on suramin-induced Akt phosphorylation. Src activation requires dephosphorylation of tyrosine 527 (Zheng et al., 2000) and phosphorylation of tyrosine 416 in the catalytic domain (Leu and Maa, 2003). Src phosphorylation at tyrosine 416 was detected in control samples. Following suramin-treatment, Src phosphorylation increased within 10 min and returned to the basal level at 60 min (FIG. 8A). […] Thus, suramin-induced RPTC proliferation and scattering is dependent on Src activity and Src is required for activation of the PI3K/Akt signaling pathway.

ERK1/2 = assay: Immunoblot of ERK1/2 phosphorylation in RPTC; conditions: pretreated with 10 μM U0126 for 1 hr; presence and absence of 50 μM suramin (30 min)
Procedure: as §1
We evaluated whether the PI3K/Akt and/or ERK1/2 pathways are activated in RPTC in response to suramin. The activation of the PI3K and ERK1/2 pathways was measured using immunoblot analysis and antibodies that recognize phosphorylated Akt at serine 473 (a target of PI3K) and ERK1/2, respectively. Total Akt and ERK1/2 content was measured using immunoblot analysis and antibodies that recognize the Akt and ERK1/2 independent of their phosphorylation state to control for gel loading.

Row | Compound | effect of inhibitor on suramin-induced RPTC proliferation (MTT assay) [1] | effect of inhibitor on Akt phosphorylation (Akt) | effect of inhibitor on suramin-induced RPTC proliferation (number of RPTC in S-phase) [2] | effect of inhibitor on suramin-induced fibroblast-like phenotype and RPTC scattering [3] | effect of inhibitor on EGF-induced EGF receptor phosphorylation (EGF receptor) | effect of inhibitor on EGF-induced fibroblast-like phenotype and scattering ([3]; 10 ng/ml EGF 24 hr, 10 μM AG1478) | effect of inhibitor on suramin-induced Src phosphorylation (Src) | effect of inhibitor on ERK1/2 phosphorylation (ERK1/2)
1 | O=c1cc(N2CCOCC2)oc2c(-c3ccccc3)cccc12 [LY294002, 2-(4-Morpholinyl)-8-phenyl-4H-1-benzopyran-4-one] | decreased suramin-induced proliferation | blocked Akt phosphorylation | decreased suramin-induced proliferation | partially inhibited |  |  |  | 
2 | COc1cc2ncnc(Nc3cccc(Cl)c3)c2cc1OC [AG1478, 4-(3-chloroanilino)-6,7-dimethoxyquinazoline] | did not affect suramin-induced RPTC proliferation | did not affect suramin-induced phosphorylation of Akt |  | did not affect suramin-induced formation of the fibroblast-like phenotype and scattering | inhibited EGF-induced EGF receptor phosphorylation | blocked EGF-induced formation of the fibroblast-like phenotype and scattering |  | 
3 | Cc1ccc(-c2nn(C(C)(C)C)c3ncnc(N)c23)cc1 [PP1] | inhibited RPTC proliferation in control and suramin-treated cells | blocked suramin-induced phosphorylation of Akt | inhibited RPTC proliferation in control and suramin-treated cells | blocked |  |  | inhibition of suramin-induced Src and Akt phosphorylation | 
4 | N#CC(=C(N)Sc1ccccc1N)C(C#N)=C(N)Sc1ccccc1N [U0126, 1,4-Diamino-2,3-dicyano-1,4-bis(2-aminophenylthio)butadiene] | had no effect on proliferation |  | had no effect on proliferation | had no effect |  |  |  | blocked ERK1/2 phosphorylation
